Assay results as given in PMC5691209, “Specific Targeting of Melanotic Cells with Peptide Ligated Photosensitizers for Photodynamic Therapy” (Scientific Reports, 2017).

Tests used:
[1] = test system: B16-F10 melanoma cells; test: Cell proliferation with LED light irradiation (Incucyte confluence); assay type: cell-based, mouse; conditions: 5 µM
Protocol: B16-F10 murine melanoma cells were seeded at a density of 3000–4000 cells per well in 96-well black-view Perkin-Elmer plates using DMEM medium without phenol red. After an overnight incubation at 37 °C, the medium was aspirated from the wells and varying concentrations of synthetic peptide-photosensitizer constructs diluted in DMEM medium were added to the cells. The cells were incubated in dark at 37 °C for 4 h and then washed twice with 1X PBS buffer (200 µL). Fresh medium (300 µL) was added to the wells before placing the plates in the Incucyte ZOOM live cell imaging machine to capture the images after every hour. Percentage of confluence was measured over a time period of 24–72 h. For skin keratinocyte cell line N/TERT-1, the starting confluence was 75–85% of cell density for the initial light experiments. The higher cell density was used to mimic the physiological condition in the body, where keratinocytes are present in much larger numbers (30:1) than melanocytes.
This combinatorial equipment comprises light irradiation system with multiple wavelengths LED (From UVA to near IR) assembled with well-established incucyte that contains incubator and light microscope. […] Incucyte light microscope was used to capture images of the cell growth at every hour or two, from which percentage confluence (i.e. cell densities) were calculated. […]

[2] = test system: B16-F10 mouse melanoma cells; test: Melanin assay (extra- and intracellular melanin production); assay type: cell-based; conditions: B16-F10, 72 h at 37 °C, OD at 475 nm, α-MSH 10 nM, NAP, HPPH-NAP, MB, HPPH 1 µM, mean of three independent experiments
Protocol: B16-F10 mouse melanoma cells or human mid-pigmented melanoma cells FM55 were seeded in Nunc 6-well tissue culture plates using DMEM medium without phenol red. After overnight incubation of the cells at 37 °C, various photosensitizers (1 µM) or peptide conjugated photosensitizers (1 µM) were added at room temperature and the cells were incubated at 37 °C for 72 h. After three days of incubation, supernatants of cell (200 µL) were pipetted out from Nunc 6-well tissue culture plates as extracellular melanin pigment and three concurrent absorption measurements were taken at 475 nm using a Spectra Max MS microplate/cuvette reader (Fig. 3c,e). Adherent cells in the Nunc 6-well plates were detached with 0.02% EDTA and centrifuged at 2000 rpm for 3 min. […] Three concurrent absorption measurements were taken at 475 nm using a Spectra Max MS microplate/cuvette reader (Fig. 3d,f). […]
B16-F10 and FM55 melanin assays are represented as the average of three independent experiments expressed as Mean ± SEM. Differences between various groups were calculated using one way ANOVA post Bonferroni’s multiple comparison test and results were reported as significant if P-value was below 0.05. Phototoxicity SRB data of B16-F10, MeL, FM55 and N/TERT-1 was analyzed via student t test and significance was reported if P-value was below 0.05.

Q: “2-(1-hexyloxyethyl)-2-devinyl pyropheophorbide [HPPH]” was tested. Which “light induced cytotoxicity (cell proliferation)” value ([1]; B16-F10, 627 nm LED light 0.10 mW/cm^2, 48 h continuously) did it give?
A: cytotoxicity was observed

Q: What about the “light induced cytotoxicity (cell proliferation)” value ([1]; B16-F10, 660 nm LED light 0.10 mW/cm^2, 48 h continuously) of the same compound?
A: cytotoxicity was observed

Q: What about the “extra- and intracellular melanin production” value [2] of the same compound?
A: did not induce any melanin production

Q: With `CN(C)c1ccc2nc3ccc(=[N+](C)C)cc-3sc2c1` [MB, methylene blue] as the compound, how does the “extra- and intracellular melanin production” value [2] read?
A: did not induce any melanin production
